Assay results taken from patent publication US20250281461A1 (The Board of Supervisors of Louisiana State University and …, priority 2021, published 2025).
Where “and” joins values, the source holds several entries; their conditions need not be identical. Identical values can stand only once.

How the values were obtained:
Calu-3 = test: Cytotoxicity of Imatinib in Calu-3 cells; details: any concentration tested (up to 100 μM)
[1] = test system: SARS-COV-2 virus (USA WA1/2020); test: ACE2 mouse model, lung tissue RT-qPCR viral titer; format: in vivo; details: K18-hACE2 mice; for Lung Tissue RT-qPCR Viral Titer Log10, Group Mean: Day 6, 7 animals
[2] = test system: SARS-COV-2 virus (USA WA1/2020); test: ACE2 mouse model, TCID50 analysis of lung samples; format: in vivo; details: K18-hACE2 mice, Day 6 lung; for Titer, TCID50 analysis of lung samples, Group Mean: 7 animals; for Titer, TCID50 analysis of lung samples, individual animals: scored on Vero C1008 (E6) cells after 120 hours
[3] = test system: human lung cancer (Calu-3) cells
[4] = pre-clinical models, oral administration; cited from earlier work
[5] = cited from earlier work
in vitro = details: human
[6] = test system: SARS-COV-2 (USA-WA1/2020 Isolate); format: cell-based; details: Calu-3 cells, Mebendazole 2.3 nM-5000 nM
[7] = Day 6, 50 mg/kg/day Mebendazole and/or 100 mg/kg/day Imatinib, oral gavage once daily

For `Cc1ccc(NC(=O)c2ccc(CN3CCN(C)CC3)cc2)cc1Nc1nccc(-c2cccnc2)n1` [Imatinib], the cytotoxicity (Vero 76 cells) was “no cytotoxicity was observed”, the cytotoxicity (Calu-3) was “no cytotoxicity was observed” and the “Lung Tissue RT-qPCR Viral Titer Log10, Group Mean” value [1] was 7.8. The “Lung Tissue RT-qPCR Viral Titer Log10, individual animals” value [1, 7] was 7.9 (2×) and 8.0 and 7.3 and 8.5 and 7.6 and 7.7, the “Lung Tissue RT-qPCR Viral Titer, individual animals” value [1, 7] was 7.80E+07 and 9.13E+07 and 2.15E+07 and 7.53E+07 and 3.12E+08 and 3.67E+07 and 5.37E+07 and the “Titer, TCID50 analysis of lung samples, Group Mean” value [2] was 7.4 Log10 TCID50/mL. The “Titer, TCID50 analysis of lung samples, individual animals” value [2] was 8.0 Log10 TCID50/mL and 6.5 Log10 TCID50/mL and 8.3 Log10 TCID50/mL and 7.5 Log10 TCID50/mL and 5.3 Log10 TCID50/mL and 7.6 Log10 TCID50/mL and 8.5 Log10 TCID50/mL.

In the case of `COC(=O)Nc1nc2ccc(C(=O)c3ccccc3)cc2[nH]1` [Mebendazole], the “inhibition of cell viability” value ([3]; all tested concentrations up to 5000 nM) is given as roughly 0%, the CC50 ([3]; read-out: CC50 (cytotoxic concentration), estimated from absence of cytotoxicity up to 5000 nM) is given as greater than 5 µM and the bioavailability [4] is given as “about 15%”. The “Lung Tissue RT-qPCR Viral Titer Log10, Group Mean” value [1] was 7.6, the plasma concentrations ([5]; 100 mg twice daily for three consecutive days) was ≤ 0.03 μg/mL and ≤ 0.1 μM and the “higher exposure to steady-state” value ([5]; long-term oral administration) was roughly 3 fold. For the same compound, the “oral dose excreted in urine” value ([5]; oral dose) was less than 2%, the oral bioavailability ([5]; reported) was 17% and the CC50 (in vitro) was greater than 5 µM. The “Inhibition of SARS-COV-2 (maximum reached)” value [6] was 100%, the “Titer, TCID50 analysis of lung samples, Group Mean” value [2] was 5.8 Log10 TCID50/mL and the “Titer, TCID50 analysis of lung samples, individual animals” value [2] was 6.0 Log10 TCID50/mL and 5.3 Log10 TCID50/mL (2×) and 4.8 Log10 TCID50/mL and 5.5 Log10 TCID50/mL and 7.3 Log10 TCID50/mL and 6.5 Log10 TCID50/mL.
